Assays:
[1] = Cu(II) complex formation equilibria, spectrophotometric titration at pH 2.5; assay type: physicochemical; conditions: conditional formation constant, aqueous solution, pH = 2.5, T = 298.2 K
Source text: The copper(II) complexation equilibria of bis-TCH were studied by means of spectrophotometric titration of the ligand with Cu(II) in aqueous solution at pH = 2.5 and pH = 7.4. […] For this reason, in the speciation models, L identifies the ligand irrespective of its protonation state, and the charges of the complexes are omitted. […] The two bands at 237 and 318 nm, observed in the spectrum of the free ligand, decrease in absorbance upon addition of Cu(II), while the two bands at 259 and 400 nm increase.
A plot of absorbance at 280 nm vs. Cu(II)/ligand molar ratio (Figure 3, inset) quite clearly evidenced that two equivalence points are present: one at ca. 0.75 eq. and one at ca. 1.5 eq. of metal added, corresponding to the formation of [Cu3L4] and [Cu3L2] species. […] The [Cu3L4] species could have a simple structural explanation considering some peculiar characters of bis-TCH. This ligand, in fact, adds to the coordinating possibilities of the central skeleton (ONSNO) two sulfonic groups, which are deprotonated, such that they can also behave as counteranions. Moreover, both the ligands have a great affinity for Cu(II) ions, but bis-TCH is more acidic than bis-CH, and this implies that it more stably coordinates Cu(II) already at pH 2.5. It will be seen further in the discussion that in the case of bis-CH at pH = 2.5, the [CuL] species is identified, while, at the same pH, bis-TCH is able to compete more efficiently for the Cu(II) ions in solution, and the result is [Cu3L4], a species with a higher ligand/metal ratio (Figure S19).
The copper(II) complexation equilibria of bis-CH were studied by means of spectrophotometric titration at pH = 2.5 and 7.4. […] The best fit of the spectrophotometric data was obtained by considering the formation of [CuL] and [Cu2L] species, with log β values of 6.26(2) and 11.30(2), respectively (Table 2).
Samples used for the study of protonation equilibria of the ligands were prepared as follows. […] For each solution, the absorption spectrum was collected in the 220–600 nm range at 298.2 K. The spectral data collection was carried out immediately after the preparation of the samples and repeated after 3 and 10 min for all the samples at different pH values to check the stability of the ligand. […]
(§1) The logarithms of the apparent stability constants were calculated from the spectral dataset using HypSpec2014 software. […] All equilibria were studied at fixed pH, and therefore the determined log β values are logarithms of conditional formation constants. […] Speciation diagrams were calculated using the Hyss2009 software. […]

[2] = Zn(II) complex formation equilibria, spectrophotometric titration at pH 7.4; assay type: physicochemical; conditions: for Log β([Zn2L]) / Log β([ZnL]): conditional formation constant, aqueous 25 mM HEPES buffer, pH 7.4, 25 °C
Source text: The best fit was obtained using a speciation model that consists of the sequential formation of a monometallic [ZnL] and a bimetallic [Zn2L] species. In fact, two families of spectra were observed, according to the presence in solution of two complex species and the free ligand. The first family of spectra (Zn/L = 0–1) (Figure S25) is characterized by a decrease in intensity for the bands of the free ligand at 239, 315, and 450 nm, and the appearance of bands at 251 and 394 nm. There are four isosbestic points at 245, 280, 371, and 429 nm. The second family of spectra (Zn/L = 1–2) (Figure S26) presents redshift and increase in absorbance of the band at 251 nm, the disappearance of the band at 349 nm, and redshift with decrease of absorbance of the band at 394 nm. […] The log β values for the formation of Zn(II) complexes with Na2H4L^1 · 5.5 H2O can be estimated (Table 4), and a representative distribution diagram is reported in Figure S27.
The spectra are characterized by four bands at ca. 238, 255, 305, and 371 nm, with those at 255 and 371 nm increasing in intensity with the addition of metal ions. The presence of these separated absorption bands led to the observation of three apparent isosbestic points at 243, 276, and 345 nm. Analogously to the Zn(II)/bis-thiocarbohydrazone system, the best fit was obtained using a speciation model that consists of the sequential formation of a monometallic [ZnL] and a bimetallic [Zn2L] species. In Figure 8, the absorbance values at 307 nm as a function of the equivalents of added Zn(II) are reported. The absorbance trend presents two almost linear regions between 0 and 1 eq. of Zn(II) and between 1 and 2 eq., respectively. This is, in fact, consistent with the sequential formation of two species with Zn:L ratios of 1:1 and 2:1, respectively. […] This behaviour is, perhaps, to be expected, taking into account the softer nature of the thiocarbohydrazonic group.
Samples used for the study of protonation equilibria of the ligands were prepared as follows. […] For each solution, the absorption spectrum was collected in the 220–600 nm range at 298.2 K. The spectral data collection was carried out immediately after the preparation of the samples and repeated after 3 and 10 min for all the samples at different pH values to check the stability of the ligand. […] The complex formation equilibria at pH 2.5 or 7.4 of bis-TCH and bis-CH with Cu(II) and Zn(II) ions were studied by direct spectrophotometric titrations of solutions of the ligands with the metal ions, and the samples were prepared as follows. Appropriate aliquots of the stock solutions of the ligands were diluted in a quartz cuvette of 1 cm path length using HEPES buffer (pH 7.4) or by adding HCl aqueous solution (pH 2.5) to obtain ca. 17 µM ligand solutions in a total volume of 2.6 mL. The obtained ligand solutions were titrated with Cu(II) or Zn(II) titrant solutions (ca. 442 µM) up to a metal/ligand ratio of 3 for the studies at pH 7.4 and up to a Cu(II):ligand ratio of 5 (for Na2H4L^1 · 5.5 H2O) and 7 (for Na2H4L^2 · 5 H2O) for the studies at pH 2.5. […]
as §1

SMILES | Log β([Cu2L]) [1] | Log β([CuL]) [1] | Log β([Zn2L]) [2] | Log β([ZnL]) [2] | Log β([Cu3L2]) [1] | Log β([Cu3L4]) [1] | higher stability of Zn(II) complexes versus Na2H4L^2 · 5 H2O (difference in log β, both species) ([2]; pH 7.4, [ZnL] and [Zn2L])
COc1cc(S(=O)(=O)[O-])cc(/C=N/NC(=O)N/N=C/c2cc(S(=O)(=O)[O-])cc(OC)c2O)c1O.[Na+].[Na+] [bis-CH, Bis-(sodium 3-methoxy-5-sulfonate-salicylaldehyde)-carbohydrazone] | 11.30(2) | 6.26(2) | 13.61(4) | 7.08(3) |  |  | 
COc1cc(S(=O)(=O)[O-])cc(/C=N/NC(=S)N/N=C/c2cc(S(=O)(=O)[O-])cc(OC)c2O)c1O.[Na+].[Na+] [bis-TCH, Bis-(sodium 3-methoxy-5-sulfonate-salicylaldehyde)-thiocarbohydrazone] |  |  | 15.29(10) | 8.40(6) | 26.4(1) | 38.6(1) | ca. 1.5 log units
